We go through 13 compounds from paper PMC7734590, “Identification of a Selective RelA Inhibitor Based on DSE-FRET Screening Methods” (International Journal of Molecular Sciences, 2020).

The structures appear in SMILES notation. “And” between values parts separate entries of the source, which are not always exact repeats. Equal entries are not always repeated. Where two headings read alike, the source gives them in different places.

For one test, the target named is RelA (Homo sapiens, UniProt Q04206). The test can be described thus: DSE-FRET RelA–DNA binding inhibition. The format is biochemical. The arrangement: Kinetic assay RelA Inhibition % ΔRFU(60 min-0 min) / RelA HTS % Inhibition / RelA Retest % Inhibition Run1 / RelA Retest % Inhibition Run2 / RelA Retest % Inhibition Avg. / Kinetic assay RelA % Inhibition ΔRFU(60 min-0 min): dose or concentration left out as unconfirmed. As to conditions: for RelA Retest % Inhibition Avg.: Retest average of Run1 and Run2.
Sequence of RelA (Q04206 19-306 limits assumed): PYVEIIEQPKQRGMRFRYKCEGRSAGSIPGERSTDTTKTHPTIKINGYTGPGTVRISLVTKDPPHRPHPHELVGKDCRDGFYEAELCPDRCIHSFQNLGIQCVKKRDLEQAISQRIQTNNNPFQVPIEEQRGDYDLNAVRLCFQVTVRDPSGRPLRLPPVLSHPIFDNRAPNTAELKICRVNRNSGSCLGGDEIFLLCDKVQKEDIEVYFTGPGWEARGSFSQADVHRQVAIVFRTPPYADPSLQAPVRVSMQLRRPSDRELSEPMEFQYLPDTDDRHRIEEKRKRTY

The target in another test is T1, p52 (Homo sapiens, UniProt Q00653).
T1 sequence (Q00653 1-454 limits assumed): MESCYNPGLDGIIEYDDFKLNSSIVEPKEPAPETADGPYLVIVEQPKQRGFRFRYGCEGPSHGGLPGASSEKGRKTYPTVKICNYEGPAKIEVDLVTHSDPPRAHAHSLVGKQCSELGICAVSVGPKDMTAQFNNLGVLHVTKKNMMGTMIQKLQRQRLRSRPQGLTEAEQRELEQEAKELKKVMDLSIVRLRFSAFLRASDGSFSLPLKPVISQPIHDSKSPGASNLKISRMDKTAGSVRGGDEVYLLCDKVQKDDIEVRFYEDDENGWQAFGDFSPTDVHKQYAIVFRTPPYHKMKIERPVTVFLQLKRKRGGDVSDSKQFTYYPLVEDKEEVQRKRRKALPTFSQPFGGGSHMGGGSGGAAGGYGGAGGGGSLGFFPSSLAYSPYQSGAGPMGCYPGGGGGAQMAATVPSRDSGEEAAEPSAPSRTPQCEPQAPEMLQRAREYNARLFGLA
The test can be described thus: DSE-FRET p52–DNA binding inhibition. Type of test: biochemical. Details: p52 Retest % Inhibition Run2 / p52 Retest % Inhibition Avg. / Kinetic assay p52 Inhibition % ΔRFU(60 min-0 min) / p52 HTS % Inhibition / p52 Retest % Inhibition Run1: dose or concentration left out as unconfirmed. The note with it: for p52 Retest % Inhibition Avg.: Retest average of Run1 and Run2.

The mark [1] stands for this setting: HTS, known drugs, 10 µM, read-out: RelA HTS % Inhibition @ 10 µM.
Setting [2] is: kinetic assay, 60 min-0 min, 10 µM, read-out: Kinetic assay @ 10 µM RelA % Inhibition ΔRFU(60 min-0 min).
Where [3] appears, read: retest, Run1, 10 µM, read-out: RelA Retest % Inhibition @ 10 µM Run1.
Where [4] appears, read: retest, Run2, 10 µM, read-out: RelA Retest % Inhibition @ 10 µM Run2.
Where [5] appears, read: retest, average of Run1 and Run2, 10 µM, read-out: RelA Retest % Inhibition @ 10 µM Avg.
[6] abbreviates: HTS, known drugs, 10 µM, read-out: p52 HTS % Inhibition @ 10 µM.
Where [7] appears, read: kinetic assay, 60 min-0 min, 10 µM, read-out: Kinetic assay @ 10 µM p52 % Inhibition ΔRFU(60 min-0 min).
The mark [8] stands for this setting: retest, Run1, 10 µM, read-out: p52 Retest % Inhibition @ 10 µM Run1.
Setting [9] is: retest, Run2, 10 µM, read-out: p52 Retest % Inhibition @ 10 µM Run2.
Where [10] appears, read: retest, average of Run1 and Run2, 10 µM, read-out: p52 Retest % Inhibition @ 10 µM Avg.
The mark [11] stands for this setting: HTS, 5 µg/mL, NPDepo hits, read-out: RelA HTS % Inhibition @ 5 µg/mL.
Setting [12] is: Retest Run1, 5 µg/mL, read-out: RelA Retest % Inhibition @ 5 µg/mL Run1.
Where [13] appears, read: Retest Run2, 5 µg/mL, read-out: RelA Retest % Inhibition @ 5 µg/mL Run2.
Where [14] appears, read: Retest average of Run1 and Run2, 5 µg/mL, read-out: RelA Retest % Inhibition @ 5 µg/mL Avg.
The mark [15] stands for this setting: kinetic assay, 5 µg/mL, ΔRFU 60 min-0 min, read-out: Kinetic assay @ 5 µg/mL RelA Inhibition % ΔRFU(60 min-0 min).
The mark [16] stands for this setting: kinetic assay, ΔRFU 60 min-0 min.
[17] abbreviates: retest of known drugs, 1 = judged hit.

Experimental for RelA: (§1) Plate-based (384 scale) DNA-binding experiments were carried out with 0.1 µL of 2 mM or 1 mg/mL compound, 2 µL of 80 nM NF-D1 (consisting of NF-01F and NF-14D), 1 µL of 20 ng/µL poly dI-dC, and 6.9 µL of 3.2 pmol protein in binding buffer (10 mM 4-(2-hydroxyethyl)-1-piperazineethanesulfonic acid (HEPES)–NaOH pH 7.9, 50 mM KCl, 0.1 mM ethylenediaminetetraacetic acid (EDTA), 2.5 mM dithiothreitol (DTT), 10% glycerol, and 0.05% Nonidet P40). The plates were incubated for 30 min at room temperature, after which 10 µL of NF-D2 (consisting of NF-02 and NF-13) was added. The plates were centrifuged at 1000 rpm for 30 s, followed by shaking for 30 s using a plate shaker (Biotec). Fluorescence was measured at 528 nm, after excitation at 485 nm, using a multiplate reader (Biotec) over a period of 60 min.
Experimental for p52: as §1

Take `CC[C@@]1(O)C(=O)OCc2c1cc1n(c2=O)Cc2cc3c(CN(C)C)c(O)ccc3nc2-1` [Topotecan]: the inhibition at 10 µM is 91.4% on RelA (setting [1]); -4.46% on RelA (setting [2]); 99.3% on RelA (setting [3]); 109% on RelA (setting [4]); 104% at RelA (setting [5]); 74.5% at p52 (setting [6]). Further, the inhibition at 10 µM is -3.67% at p52 (setting [7]), 94.6% at p52 (setting [8]), 104% on p52 (setting [9]) and 99.1% at p52 (setting [10]).
Take `O=C(O)c1cc(O)c2c(c1)[C@H]([C@H]1c3cc(C(=O)O)cc(O)c3C(=O)c3c(O[C@@H]4O[C@H](CO)[C@@H](O)[C@H](O)[C@H]4O)cccc31)c1cccc(O[C@@H]3O[C@H](CO)[C@@H](O)[C@H](O)[C@H]3O)c1C2=O` [Sennoside A]: the “Hit Judgement of: RelA” value at RelA (1 = judged hit after retest) was 1. Besides, the inhibition at 5 µg/mL on RelA (setting [11]) turned out to be 85.4%; on RelA (setting [12]) it was 88.7%; at RelA (setting [13]) it was 100%; on RelA (setting [14]), 94.6%; on RelA (setting [15]), 31%. The “Hit Judgement of: p52” value at p52 (1 = judged hit after retest) is 1.
As to `O=c1cc[nH]c(=O)[nH]1` [URACIL], the inhibition at 10 µM was 1.1% at RelA (setting [1]); -1.11% at RelA (setting [2]); 0.0644% at RelA (setting [3]); 0.634% on RelA (setting [4]); 0.349% on RelA (setting [5]); 30.5% at p52 (setting [6]). For the same compound, the inhibition at 10 µM was -1% on p52 (setting [7]), 0.245% on p52 (setting [8]), 0.9% at p52 (setting [9]) and 0.6% on p52 (setting [10]).
In the case of `O=C1NC(=O)c2c1c1c3ccccc3n3c1c1c2c2ccccc2n1C1CCC3O1` [SB 218078], the “Kinetic assay RelA % Inhibition ΔRFU(60 min-0 min)” value at RelA (kinetic assay, 60 min-0 min) was determined as 13%. Further, the “Kinetic assay p52 % Inhibition ΔRFU(60 min-0 min)” value on p52 (kinetic assay, 60 min-0 min) came to 5%.
Take `O=C(O[C@H]1C[C@H]2CC[C@@H](C1)[N+]21CCCC1)C(O)(c1ccccc1)c1ccccc1` [TROSPIUM CHLORIDE]: the inhibition at 10 µM at RelA (setting [1]) came to 108%; at p52 (setting [6]) it was 116%.
Take `O=c1c(=Cc2ccc(-c3ccccc3F)o2)sc2nc3sc4c(c3c(=O)n12)CCCC4`: the “RelA HTS % Inhibition” value on RelA (HTS, NPDepo hits) turned out to be 33.6%. Moreover, at RelA, the “RelA Retest % Inhibition Run1” value is 26.4%, the “RelA Retest % Inhibition Run2” value is recorded as 32.2% and the “RelA Retest % Inhibition Avg.” value is listed as 29.3%. Also, the “Kinetic assay RelA Inhibition % ΔRFU(60 min-0 min)” value on RelA (setting [16]) was 0.774%. Further, the “p52 HTS % Inhibition” value at p52 (HTS, NPDepo hits) amounted to 20.7%. For the same compound, on p52, the “p52 Retest % Inhibition Run1” value came out at 25.8%, the “p52 Retest % Inhibition Run2” value is 30.7% and the “p52 Retest % Inhibition Avg.” value came to 28.2%. Further, the “Kinetic assay p52 Inhibition % ΔRFU(60 min-0 min)” value on p52 (setting [16]) is -0.236%.
Take `O=C1C=CC(=C(c2ccc(O)c(O)c2)c2ccccc2S(=O)(=O)O)C=C1O` (mixture of isomers) [Pyrocatechol violet]: on RelA (1 = judged hit after retest), the “Hit Judgement of: RelA” value stood at 1. The inhibition at 5 µg/mL at RelA (setting [11]) was 52.5%; on RelA (setting [12]) it was 43.2%; on RelA (setting [13]) it was 47.5%; on RelA (setting [14]), 45.3%; at RelA (setting [15]), 15%; on p52 (HTS, 5 µg/mL, NPDepo hits, read-out: p52 HTS % Inhibition @ 5 µg/mL), 4.4%. The inhibition at 5 µg/mL on p52 (Retest Run1, 5 µg/mL, read-out: p52 Retest % Inhibition @ 5 µg/mL Run1) was determined as 14.9%; at p52 (Retest Run2, 5 µg/mL, read-out: p52 Retest % Inhibition @ 5 µg/mL Run2), 16.2%; at p52 (Retest average of Run1 and Run2, 5 µg/mL, read-out: p52 Retest % Inhibition @ 5 µg/mL Avg.), 15.6%; on p52 (kinetic assay, 5 µg/mL, ΔRFU 60 min-0 min, read-out: Kinetic assay @ 5 µg/mL p52 Inhibition % ΔRFU(60 min-0 min)), 6%. Moreover, the “Hit Judgement of: p52” value at p52 (1 = judged hit after retest) came out at 1.
Regarding `CCN1C(=O)C(=CC=C2Oc3ccccc3N2CCC(=O)O)N(C)C1=S`, the “RelA HTS % Inhibition” value on RelA (HTS, NPDepo hits) was found to be 107.7%. For the same compound, at RelA (setting [16]), the “Kinetic assay RelA Inhibition % ΔRFU(60 min-0 min)” value was -18%. Moreover, the “p52 HTS % Inhibition” value on p52 (HTS, NPDepo hits) is listed as 115.0%. Further, the “Kinetic assay p52 Inhibition % ΔRFU(60 min-0 min)” value at p52 (setting [16]) is on record as -27%.
Turning to `O=C1C(Cl)=C(NCCN2CCOCC2)C(=O)c2ncccc21` [NSC 663284], the “RelA HTS % Inhibition” value on RelA (HTS, known drugs) was 37.5%. On RelA, the “RelA Retest % Inhibition Run1” value was found to be 37.2%, the “RelA Retest % Inhibition Run2” value amounted to 41.8% and the “RelA Retest % Inhibition Avg.” value was 39.5%. The “Kinetic assay RelA % Inhibition ΔRFU(60 min-0 min)” value on RelA (kinetic assay, 60 min-0 min) came to 9%. Also, the “Hit Judgement of: RelA” value at RelA (setting [17]) was 1. Moreover, at p52 (HTS, known drugs), the “p52 HTS % Inhibition” value is listed as 39.5%. For the same compound, on p52, the “p52 Retest % Inhibition Run1” value is given as 24.9%, the “p52 Retest % Inhibition Run2” value is reported as 28.6% and the “p52 Retest % Inhibition Avg.” value came out at 26.7%. Further, the “Kinetic assay p52 % Inhibition ΔRFU(60 min-0 min)” value on p52 (kinetic assay, 60 min-0 min) came to 1.64%. For the same compound, the “Hit Judgement of: p52” value on p52 (setting [17]) was found to be 1.
Turning to `Cc1cc(-c2ccc(/N=N/c3ccc4c(S(=O)(=O)O)cc(S(=O)(=O)O)c(N)c4c3O)c(C)c2)ccc1/N=N/c1ccc2c(S(=O)(=O)O)cc(S(=O)(=O)O)c(N)c2c1O` [EVANS BLUE], the inhibition at 10 µM turned out to be 78.1% on RelA (setting [1]); 4.59% at RelA (setting [2]); 70.4% on RelA (setting [3]); 77.2% at RelA (setting [4]); 73.8% at RelA (setting [5]); 24% at p52 (setting [6]). Further, the inhibition at 10 µM on p52 (setting [7]) amounted to 2.44%; at p52 (setting [8]), 62.3%; at p52 (setting [9]) it was 35.8%; at p52 (setting [10]), 49%.
As to `OCCN(CCO)c1nc(N2CCCCC2)c2nc(N(CCO)CCO)nc(N3CCCCC3)c2n1` [Dipyridamole], the “Kinetic assay RelA % Inhibition ΔRFU(60 min-0 min)” value on RelA (kinetic assay, 60 min-0 min) was -4.24% and -5.31%. The “Kinetic assay p52 % Inhibition ΔRFU(60 min-0 min)” value on p52 (kinetic assay, 60 min-0 min) was -0.806% and -5%.
Take `COc1cc2c(cc1OC)-c1cc3nc4ccccc4nc3n1C(C)(C)C2` [YM 90709]: on RelA (kinetic assay, 60 min-0 min), the “Kinetic assay RelA % Inhibition ΔRFU(60 min-0 min)” value is -3.67%. The “Kinetic assay p52 % Inhibition ΔRFU(60 min-0 min)” value at p52 (kinetic assay, 60 min-0 min) is listed as -1.43%.
`CC(=O)Oc1cccc2c1C(=O)c1c(OC(C)=O)cc(C(=O)O)cc1C2=O` [DIACERIN]: the “Kinetic assay RelA % Inhibition ΔRFU(60 min-0 min)” value on RelA (kinetic assay, 60 min-0 min) is 3%. For the same compound, the “Kinetic assay p52 % Inhibition ΔRFU(60 min-0 min)” value on p52 (kinetic assay, 60 min-0 min) was 2.21%.
